Measured values: patent publication US5612331A, “Tetrahydrocarbazole derivatives as 5-HT1-like agonists” (SmithKline Beecham PLC, priority 1992, dated 1997)
Structures can show the parent of a compound that is named as a salt.

target: T1, 5-HT1-like receptor (Oryctolagus cuniculus, UniProt P49144); assay: Rabbit isolated basilar artery, cumulative concentration-effect curves (isometric tension); type: cell-based; conditions: rabbit isolated basilar artery rings, endothelium removed; in presence of ascorbate, indomethacin, cocaine, ketanserin and prazosin
T1 construct: the basilar artery removed with the aid of a dissecting microscope; from tissue; host or cells: rabbit basilar artery ring segments, endothelium removed
T1 sequence (P49144 whole entry): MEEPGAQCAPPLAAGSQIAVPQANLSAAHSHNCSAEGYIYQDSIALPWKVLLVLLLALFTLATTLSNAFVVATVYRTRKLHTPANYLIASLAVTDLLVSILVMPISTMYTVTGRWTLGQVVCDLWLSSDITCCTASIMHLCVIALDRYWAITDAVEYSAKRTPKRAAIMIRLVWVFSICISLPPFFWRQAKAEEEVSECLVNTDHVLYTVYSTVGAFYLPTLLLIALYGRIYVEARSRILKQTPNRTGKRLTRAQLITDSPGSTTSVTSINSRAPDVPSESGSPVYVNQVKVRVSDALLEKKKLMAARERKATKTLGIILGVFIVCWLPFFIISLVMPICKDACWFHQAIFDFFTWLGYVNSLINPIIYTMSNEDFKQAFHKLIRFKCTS
Experimental: Experiments were performed in intracranial arteries from rabbit isolated basilar artery in a similar method to one described previously (Parsons and Whalley, 1989. Eur J Pharmacol 174, 189-196.).
In brief, rabbits were killed by overdose with anaesthetic (sodium pentobarbitone). The whole brain was quickly removed and immersed in ice cold modified Kreb's solution and the basilar artery removed with the aid of a dissecting microscope. The Krebs solution was of the following composition (mM) Na^+ (120); K^+ (5); Ca^2+ (2.25); Mg^2+ (0.5); Cl^- (98.5); SO4^2- (1); EDTA (0.04), equilibrated with 95% O2 /5% CO2. The endothelium was removed by a gentle rubbing of the lumen with a fine metal wire. Arteries were then cut into ring segments (ca 4-5 mm wide) and set up for recording of isometric tension in 50 ml tissue baths in modified Krebs solution with the additional supplement of (mM); […] (20); fumarate (10); pyruvate (5); L-glutamate (5) and glucose (10). The arteries were then placed under a resting force of 3-4 mN maintained at 37° C. and the solution bubbled with 95% O2 /5% CO2.
After tests for initial reactivity with 90 mM KCl depolarising solution and for lack of acetylcholine-induced relaxation of 5-HT ([…]) precontraction, cumulative concentration-effect curves ([…]) to 5-HT were constructed in the presence of ascorbate […], cocaine […], indomethacin […], ketanserin […] and prazosin […].
Following a 45-60 min wash period, cumulative concentration-effect curves to the test compounds or 5-HT (as a time match control) were constructed in the presence of ascorbate, indomethacin, cocaine, ketanserin and prazosin.

Row | SMILES | EC50
1 | NC1CCc2[nH]c3ccc(C(=O)NCCc4ccccc4)cc3c2C1 (stereo not drawn) [Example 3, 3-Amino-6-N-(2-phenylethyl)carboxamido-1,2,3,4-tetrahydrocarbazole] | 90 to 4010 nM
2 | NC1CCc2[nH]c3ccc(C(=O)NCCc4ccc([N+](=O)[O-])cc4)cc3c2C1 (stereo not drawn) [Example 5, 3-Amino-6-N-[2-(4-nitrophenyl)ethyl]carboxamido-1,2,3,4-tetrahydrocarbazolefumarate salt] | 90 to 4010 nM
3 | CS(=O)(=O)Nc1ccc(CCNC(=O)c2ccc3[nH]c4c(c3c2)CC(N)CC4)cc1 (stereo not drawn) [Example 7, 3-Amino-6-N-[2-(4-methylsulphonamidophenyl)ethyl]carboxamido-1,2,3,4-tetrahydrocarbazole oxalate salt] | 90 to 4010 nM
4 | COc1ccc(CCNC(=O)c2ccc3[nH]c4c(c3c2)CC(N)CC4)cc1 (stereo not drawn) [Example 8, 3-Amino-6-N-[2-(4-methoxyphenyl)ethyl]carboxamido-1,2,3,4-tetrahydrocarbazole oxalate salt] | 90 to 4010 nM
5 | NC1CCc2[nH]c3ccc(C(=O)NCCc4ccc(S(N)(=O)=O)cc4)cc3c2C1 (stereo not drawn) [Example 9, 3-Amino-6-N-[2-(4-phenylsulphonamido)ethyl]carboxamido-1,2,3,4-tetrahydrocarbazole] | 90 to 4010 nM
6 | COc1ccc(/C=C/CNC(=O)c2ccc3[nH]c4c(c3c2)CC(N)CC4)cc1 (stereo not drawn) [Example 13, 3-Amino-6-[E-3-(4-methoxyphenyl)prop-2-enyl]carboxamido-1,2,3,4-tetrahydrocarbazole oxalate salt] | 90 to 4010 nM
7 | COc1cccc(/C=C/CNC(=O)c2ccc3[nH]c4c(c3c2)CC(N)CC4)c1 (stereo not drawn) [Example 14, 3-Amino-6-[E-3-(3-methoxyphenyl)prop-2-enyl]carboxamido-1,2,3,4-tetrahydrocarbazole oxalate salt] | 90 to 4010 nM
8 | NC1CCc2[nH]c3ccc(C(=O)NC/C=C/c4ccccc4)cc3c2C1 (stereo not drawn) [Example 15, 3-Amino-6-(E-3-(phenylprop-2-enyl)carboxamido-1,2,3,4-tetrahydrocarbazole oxalate salt] | 90 to 4010 nM

The remaining lines, values ahead:

Row | EC50 | SMILES
9 | 90 to 4010 nM | NC1CCc2[nH]c3ccc(C(=O)NCCCc4ccccc4)cc3c2C1 (stereo not drawn) [Example 1, 3-Amino-6-N-(3-phenylpropyl)carboxamido-1,2,3,4-tetrahydrocarbazole oxalate salt]
10 | 90 to 4010 nM | Nc1ccc(CCNC(=O)c2ccc3[nH]c4c(c3c2)CC(N)CC4)cc1 (stereo not drawn) [Example 6, 3-Amino-6-N-[2-(4-aminophenyl)ethyl]carboxamido-1,2,3,4-tetrahydrocarbazoleoxalate salt]
11 | 90 to 4010 nM | COc1ccc(CCCNC(=O)c2ccc3[nH]c4c(c3c2)CC(N)CC4)cc1 (stereo not drawn) [Example 17, 3-Amino-6-[3-(4-methoxyphenyl)propyl]carboxamido-1,2,3,4-tetrahydrocarbazole oxalate salt]
12 | 90 to 4010 nM | NC1CCc2[nH]c3ccc(C(=O)NC/C=C/c4cccc([N+](=O)[O-])c4)cc3c2C1 (stereo not drawn) [Example 18, 3-Amino-6-[E-3 (3-nitrophenyl)prop-2-enyl]carboxamido-1,2,3,4-tetrahydrocarbazole oxalate salt]
